Reference: paper PMC10848157, “Assessing NH300094, a novel dopamine and serotonin receptor modulator with cognitive enhancement property for treating schizophrenia” (Frontiers in Pharmacology, 2024)
Structures can show the parent of a compound that is named as a salt.

Tests used:
[1] = target: 5-HT1B receptor (Homo sapiens, UniProt P28222); assay: 5-HT1B receptor functional assay (cAMP assay, inverse agonist); type: cell-based; conditions: inverse agonist activity, CHO-K1/5-HT1B cells, read-out: 5HT1BR, EC50
Chain of 5-HT1B receptor (P28222 whole entry): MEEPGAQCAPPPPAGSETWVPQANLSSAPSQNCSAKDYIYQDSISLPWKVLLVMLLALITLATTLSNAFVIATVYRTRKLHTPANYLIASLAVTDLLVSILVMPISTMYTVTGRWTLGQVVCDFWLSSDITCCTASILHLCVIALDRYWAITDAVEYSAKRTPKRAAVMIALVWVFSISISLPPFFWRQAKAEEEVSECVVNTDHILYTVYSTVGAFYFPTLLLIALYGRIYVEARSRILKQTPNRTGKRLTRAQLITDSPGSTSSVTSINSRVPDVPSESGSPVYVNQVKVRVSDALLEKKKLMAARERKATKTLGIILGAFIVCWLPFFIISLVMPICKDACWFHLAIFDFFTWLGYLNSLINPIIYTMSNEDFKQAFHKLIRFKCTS

[2] = target: T1, 5-HT2C receptor (Homo sapiens, UniProt P28335); assay: 5-HT2C receptor functional assay (calcium flow, FLIPR); type: cell-based; conditions: HEK293/5-HT2C cells, read-out: 5HT2cR, IC50
T1 sequence (P28335 33-458): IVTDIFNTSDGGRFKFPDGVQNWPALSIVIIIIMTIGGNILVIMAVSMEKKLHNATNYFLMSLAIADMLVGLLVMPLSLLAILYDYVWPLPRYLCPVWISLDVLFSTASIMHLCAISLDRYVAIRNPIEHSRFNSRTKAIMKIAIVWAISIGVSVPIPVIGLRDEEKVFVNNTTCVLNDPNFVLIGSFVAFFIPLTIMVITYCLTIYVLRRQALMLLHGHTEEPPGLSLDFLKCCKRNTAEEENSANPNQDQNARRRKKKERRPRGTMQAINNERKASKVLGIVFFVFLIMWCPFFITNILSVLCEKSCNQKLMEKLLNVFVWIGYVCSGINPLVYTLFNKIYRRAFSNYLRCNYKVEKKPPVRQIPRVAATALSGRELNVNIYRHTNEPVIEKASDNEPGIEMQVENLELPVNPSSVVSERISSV

[3] = test system: male Wistar rats; assay: Conditioned avoidance response test in rats; type: in vivo; conditions: Rattus norvegicus, single oral dose, read-out: ED50, inhibition of conditioned avoidance response
Text: Shuttle-box Avoidance Test Video Analysis System (DigBehv-SBG, Shanghai Jiliang Software Technology Co. Ltd.) were used to assess the rats conditioned avoidance response.
Phase I: The rats responded to the conditioned stimulus (auditory and visual) by training with foot shock reinforcement. Briefly, rats were placed into the CAR shuttle boxes for a 5-min habituation followed by 30 trials presented on a 20-s variable interval (20–30 s) stimulus. Each rats were subjected to a conditioned stimulus which consisted of 10s presentation of light and white noise, and then followed by a scrambled 1.5 mA foot shock for 10 s. […] Rats with avoidance rates greater than 70% for 3 consecutive days were included in this study post-training.
Phase II: The qualified rats were randomly divided into 7 groups. […] The procedure in the testing phase was the same as the Phase I described. The number of avoidances, escapes, and escape failures were recorded.

[4] = test system: male ICR mice; assay: Forced swimming test in mice; type: in vivo; conditions: single oral dose; NH300094 0.03 mg/kg; risperidone 0.01, 0.03 and 0.1 mg/kg
Experimental: Each mouse was required to swim in an open cylindrical container (height of 25 cm, diameter of 10 cm) after intragastric administration of compounds 1 h. The container contained 1.2 L of water with temperature maintained at 24°C ± 1°C. The test used a computerized analysis and tracking system (Clever Sys Inc., Leesburg, VA) to recorded the duration of immobility (last 4 min of a total time of 6 min) about the testing mice.

[5] = test system: male ICR mice; assay: APO-induced climbing in mice
[6] = test system: male ICR mice; assay: MK-801-induced hyperactivity in mice; type: in vivo; conditions: single oral dose
Experimental: Immediately after injection with either saline or MK-801 (0.3 mg/kg, i.p.), the mice were placed into the test chambers (29 cm × 29 cm × 30 cm) for 60 min of locomotion recording using a tracking and computerized analysis system (TopScan Version 3.00, Clever Sys Inc., Leesburg, VA).

[7] = test system: male ICR mice; assay: DOI-induced head twitch in mice
[8] = test system: male ICR mice; assay: Novel object recognition in scopolamine hydrobromide-treated mice; type: in vivo; conditions: NOR; NH300094 0.01–0.16 mg/kg p.o.; risperidone 0.04, 0.08, 0.16 mg/kg p.o.; rivastigmine 0.3 and 1 mg/kg i.p.
Experimental: The procedure was modified according to Bevins and Besheer ([Bevins and Besheer, 2006]). […] The tests were conducted in a 50 cm × 35 cm × 20 cm chamber and the mice behavior was recording using a Hikvision video recording system (H.265, Hikvision Digtial Technology Co., Ltd.). All mice were allowed to freely explore the chamber environment for 10 min, and there were no objects placed in the chamber during acclimatization period. […] Rivastigmine hydrogen tartrate group (0.1, 0.3 and 1 mg/kg, i.p.) were dosed simultaneously with scopolamine hydrobromide (3 mg/kg, i.p.). Training was conducted 30 min post scopolamine hydrobromide administration by placing a single mouse into a chamber for 10 min with two exactly same objects positioned in the center of chamber. (The distance between the two objects was more than 20 cm). […]
The experimental video was analyzed to record the time of mice exploring the new and old objects, respectively, and the differentiation index (DI) was calculated as follows: DI = new object exploration time/(new object exploration time + old object exploration time), which was used as the main evaluation index of discrimination ability. […] If the total exploration time of the new and old objects was less than 20 s, the total 10 min of video would be analyzed. […] The movement of circling without sniffing or sitting on the object was not recorded as exploration behavior.

[9] = single oral dose, male ICR mice

SMILES: CSc1ccc2c(c1)C(N1CCN(C)CC1)Cc1ccccc1S2 (centres unmarked) [Methiothepin, reference compound]
- EC50 [1]: 22.3 ± 9.69 nM
- IC50 [2]: 39.7 nM

SMILES: Cc1nc2n(c(=O)c1CCN1CCC(c3noc4cc(F)ccc34)CC1)CCCC2 [Risperidone, risperidone, reference compound]
- ED50 [3]: ~0.7 mg/kg
- effect on immobility time in the FST [4]: did not affect the immobility time
- ED50 ([5]; Mus musculus, read-out: ED50, inhibition of APO-induced climbing): ~0.1 mg/kg
- MED, APO-induced climbing [5, 9]: 0.1 mg/kg
- ED50 ([6]; Mus musculus, MK-801 0.3 mg/kg i.p., read-out: ED50, inhibition of MK-801-induced hyperactivity): ~0.08 mg/kg
- Minimum effective dose (MED), MK-801-induced hyperactivity [6]: 0.1 mg/kg
- ED50 ([7]; Mus musculus, po, read-out: ED50, inhibition of DOI-induced head twitch, single oral dose, male ICR mice, DOI 1 mg/kg): ~0.002 mg/kg
- MED, DOI-induced head twitch [7, 9]: 0.001 mg/kg

SMILES: CCN(C)C(=O)Oc1cccc([C@H](C)N(C)C)c1 [rivastigmine bitartrate, rivastigmine hydrogen tartrate, reference compound]
- effect on differentiation index (DI) of scopolamine hydrobromide-treated mice [8]: significantly enhanced learning and memory ability
